Source: ChEMBL document CHEMBL1124646, “Sulfur-containing 1,3-dialkylxanthine derivatives as selective antagonists at A1-adenosine receptors” (J Med Chem, 1989)
One block for each molecule: values may come before it.

Legend:
Adenosine receptor A1 [1] = molecular target: T1, Adenosine receptor A1 (Rattus norvegicus, UniProt P25099); assay: Inhibition of binding of 1 nM [3H]N-6-(phenylisopropyl)adenosine to adenosine A1 receptor in rat cortical membranes; format: cell membranes, Membrane
T1 sequence (P25099 whole entry): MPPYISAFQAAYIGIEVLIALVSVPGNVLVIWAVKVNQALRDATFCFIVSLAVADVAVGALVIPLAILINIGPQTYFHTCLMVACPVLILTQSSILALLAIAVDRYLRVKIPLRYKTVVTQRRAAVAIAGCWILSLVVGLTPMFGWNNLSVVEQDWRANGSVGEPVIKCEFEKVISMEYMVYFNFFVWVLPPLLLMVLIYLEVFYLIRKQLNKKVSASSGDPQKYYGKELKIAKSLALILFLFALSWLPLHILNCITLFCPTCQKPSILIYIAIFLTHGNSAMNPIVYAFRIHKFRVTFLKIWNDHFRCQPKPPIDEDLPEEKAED

Adenosine A2 receptor [2] = molecular target: T2, Adenosine A2 receptor (Rattus norvegicus, UniProt P29276+P30543)
Description: Inhibition of binding of [3H]5'-(N-ethylcarbamoyl)-adenosine to adenosine A2 receptor in rat striatal membranes

[3] = molecular target: Adenosine receptors; A1 & A2 (Rattus norvegicus) (UniProt P29276+P25099+P30543); assay: Inhibitory selectivity for A2 receptor in rat striatal membranes and A1 receptor in rat cortical membranes; format: cell membranes; conditions: Striatum, Membrane
Adenosine A2 receptor [4] = molecular target: T2, Adenosine A2 receptor; format: cell membranes, Membrane
[5] = molecular target: Adenosine receptor A1 (Rattus norvegicus); assay: Inhibitory selectivity for A1 receptor in rat striatal membranes and Adenosine A1 receptor in rat cortical membranes
Adenosine receptor A1 [6] = molecular target: T1, Adenosine receptor A1; assay: Inhibition of 1 nM [3H]N-6-(phenylisopropyl)adenosine binding to A1 receptors in rat cortical membranes; format: cell membranes, Membrane
Adenosine receptor A1 [7] = molecular target: T1, Adenosine receptor A1; assay: Inhibition of 1 nM [3H]N-6-(phenylisopropyl)adenosine binding to adenosine A1 receptors in rat cortical membranes; format: cell membranes, Membrane
[8] = molecular target: Adenosine receptors; A1 & A2 (Rattus norvegicus, UniProt P29276+P25099+P30543); assay: Inhibitory selectivity for A1 receptor in rat striatal membranes and Adenosine A1 receptor in rat cortical membranes; format: cell membranes, Striatum, Membrane

Ki (Adenosine receptor A1 [1]): 72.4 nM
Ki (Adenosine A2 receptor [2]): 984 nM
Structure (SMILES): Cn1c(=O)c2nc(-c3ccoc3)[nH]c2n(C)c1=O

Ratio [3]: 85
Ki (Adenosine A2 receptor [4]): 630 nM
Structure (SMILES): CCCn1c(=O)c2nc(-c3ccc(OCC(=O)NCCNC(=O)CCCCCCC(=O)NCc4cccs4)cc3)[nH]c2n(CCC)c1=O

Ratio [3]: 44.4
Ki (Adenosine A2 receptor [4]): 8980 nM
Structure (SMILES): Cn1c(=S)c2nc(C3CCCC3)[nH]c2n(C)c1=O

Ki (Adenosine A2 receptor [2]): 26.3 nM
Structure (SMILES): CCCn1c(=O)c2nc(-c3ccc(OCC(=O)NCCN)cc3)[nH]c2n(CCC)c1=S

Ki (Adenosine A2 receptor [2]): 841 nM
Structure (SMILES): Cn1c(=O)c2nc(-c3ccsc3)[nH]c2n(C)c1=O

Ki (Adenosine receptor A1 [1]): 182 nM
Ki (Adenosine A2 receptor [2]): 4450 nM
Structure (SMILES): Cn1c(=O)c2nc(-c3ccco3)[nH]c2n(C)c1=S

Ki [5]: 33.5 nM
Structure (SMILES): CCCn1c(=O)c2nc(-c3ccc(OCC(=O)NCCNC(=O)CCCCCCC(=O)ON4C(=O)CCC4=O)cc3)[nH]c2n(CCC)c1=S

Structure (SMILES): CCCn1c(=O)c2nc(-c3ccc(OCC(=O)N(C)CCN(C)C)cc3)[nH]c2n(CCC)c1=S
Ki (Adenosine A2 receptor [2]): 24.5 nM

Ki (Adenosine A2 receptor [2]): 315 nM
Structure (SMILES): CCCn1c(=O)c2nc(-c3ccc(OCC(=O)O)cc3)[nH]c2n(CCC)c1=S

Ratio [3]: 572
Ki (Adenosine A2 receptor [4]): 2780 nM
Structure (SMILES): CCCn1c(=S)c2nc(C3CCCC3)[nH]c2n(CCC)c1=S

Ki (Adenosine receptor A1 [1]): 32 nM
Ki (Adenosine A2 receptor [2]): 594 nM
Structure (SMILES): CCCn1c(=O)c2nc(-c3ccco3)[nH]c2n(CCC)c1=S

Ki (Adenosine receptor A1 [6]): 17 nM
Structure (SMILES): CCCn1c(=O)c2[nH]c(-c3ccc(OCC(=O)NCCNC(=O)[C@@H](Cc4cccs4)NC(=O)OC(C)(C)C)cc3)nc2n(CCC)c1=O

Ki (Adenosine receptor A1 [1]): 13 nM
Ki (Adenosine A2 receptor [2]): 46.8 nM
Structure (SMILES): Br.Br.CCCn1c(=O)c2nc(-c3ccc(OCC(=O)NCCNC(=O)C(N)CCCCN)cc3)[nH]c2n(CCC)c1=S (stereo not drawn)

Ki (Adenosine A2 receptor [2]): 314 nM
Structure (SMILES): CCCn1c(=O)c2[nH]c(C3CCCC3)nc2n(CCC)c1=S

Ki (Adenosine receptor A1 [6]): 12 nM
Structure (SMILES): CCCn1c(=O)c2[nH]c(-c3ccc(OCC(=O)NCCNC(=O)C(CCCCNC(=O)OCc4ccccc4)NC(=O)OC(C)(C)C)cc3)nc2n(CCC)c1=O (stereo not drawn)

Structure (SMILES): CCCn1c(=O)c2nc(-c3ccc(OCC(=O)NCCNC(=O)C(N)CCCCNC(=O)OCc4ccccc4)cc3)[nH]c2n(CCC)c1=S.O=C(O)C(F)(F)F (stereo not drawn)
Ratio [3]: 36
Ki (Adenosine receptor A1 [7]): 6.8 nM
Ki (Adenosine A2 receptor [4]): 322 nM

Ki (Adenosine A2 receptor [2]): 11300 nM
Structure (SMILES): Cn1c(=S)c2nc(-c3ccccc3)[nH]c2n(C)c1=O

Ki (Adenosine A2 receptor [2]): 3360 nM
Structure (SMILES): CCCn1c(=S)c2nc(C3CCCC3)[nH]c2n(CCC)c1=O

Ki (Adenosine receptor A1 [1]): 350 nM
Ki (Adenosine A2 receptor [2]): 2780 nM
Structure (SMILES): Cn1c(=O)c2nc(-c3ccco3)[nH]c2n(C)c1=O

Ki (Adenosine A2 receptor [2]): 147 nM
Structure (SMILES): CCCn1c(=O)c2nc(-c3ccc(OCC(=O)NCCNC(=O)Cc4cccs4)cc3)[nH]c2n(CCC)c1=O

Ratio [3]: 136
Ki (Adenosine receptor A1 [7]): 10.2 nM
Ki (Adenosine A2 receptor [4]): 1390 nM
Structure (SMILES): Cn1c(=O)c2nc(C3CCCC3)[nH]c2n(C)c1=S

Ki (Adenosine A2 receptor [2]): 27.9 nM
Structure (SMILES): CCCn1c(=O)c2nc(-c3ccc(OCC(=O)NCCN(C)C)cc3)[nH]c2n(CCC)c1=S

Ki (Adenosine A2 receptor [2]): 381 nM
Structure (SMILES): CCCn1c(=O)c2nc(-c3cccs3)[nH]c2n(CCC)c1=O

Ki (Adenosine A2 receptor [2]): 121 nM
Structure (SMILES): CCCn1c(=O)c2nc(-c3ccsc3)[nH]c2n(CCC)c1=O

Ki (Adenosine receptor A1 [1]): 15.1 nM
Structure (SMILES): CCCn1c(=O)c2[nH]c(-c3ccc(OCC(=O)NCCNC)cc3)nc2n(CCC)c1=O

Ki (Adenosine receptor A1 [1]): 37 nM
Ki (Adenosine A2 receptor [2]): 640 nM
Structure (SMILES): CCCn1c(=O)c2nc(-c3ccco3)[nH]c2n(CCC)c1=O

Ki (Adenosine receptor A1 [1]): 2.8 nM
Ki (Adenosine A2 receptor [2]): 5.03 nM
Structure (SMILES): CCCn1c(=O)c2nc(-c3ccc(OCC(=O)NCCN(C)C)cc3)[nH]c2n(CCC)c1=O

Ki (Adenosine A2 receptor [2]): 1740 nM
Structure (SMILES): Cn1c(=O)c2nc(-c3cccs3)[nH]c2n(C)c1=S

Ki (Adenosine receptor A1 [1]): 0.87 nM
Ki (Adenosine A2 receptor [2]): 180 nM
Structure (SMILES): Br.Br.CCCn1c(=O)c2nc(-c3ccc(OCC(=O)NCCNC(=O)C(N)CCCCN)cc3)[nH]c2n(CCC)c1=O (stereo not drawn)

Ki (Adenosine A2 receptor [2]): > 5000 nM
Structure (SMILES): CCCn1c(=O)c2nc(-c3ccc(OCC(=O)OCC)cc3)[nH]c2n(CCC)c1=O

Ki (Adenosine A2 receptor [2]): 1630 nM
Structure (SMILES): Cn1c(=O)c2nc(-c3cccs3)[nH]c2n(C)c1=O

Ki (Adenosine A2 receptor [2]): > 5000 nM
Structure (SMILES): CCCn1c(=O)c2nc(-c3ccc(OCC(=O)OCC)cc3)[nH]c2n(CCC)c1=S

Ki (Adenosine receptor A1 [1]): 38 nM
Ki (Adenosine A2 receptor [2]): > 7000 nM
Structure (SMILES): Cn1c(=O)c2nc(-c3ccccc3)[nH]c2n(C)c1=S

Ratio [3]: 285
Ki (Adenosine A2 receptor [4]): 11500 nM
Structure (SMILES): Cn1c(=S)c2nc(C3CCCC3)[nH]c2n(C)c1=S

Ki (Adenosine A2 receptor [2]): > 5000 nM
Structure (SMILES): CCCn1c(=O)c2nc(-c3cccs3)[nH]c2n(CCC)c1=S

Ratio [3]: 10.3
Ki (Adenosine A2 receptor [4]): 116 nM
Structure (SMILES): CCCn1c(=O)c2nc(-c3ccc(OCC(=O)NCCNC(=O)Cc4ccc(I)s4)cc3)[nH]c2n(CCC)c1=O

Ki (Adenosine receptor A1 [1]): 16.1 nM
Ki (Adenosine A2 receptor [2]): 422 nM
Structure (SMILES): CCCn1c(=O)c2nc(-c3ccccc3)[nH]c2n(CCC)c1=S

Structure (SMILES): CCCn1c(=O)c2nc(-c3ccc(OCC(=O)NCCNC(=O)C(N)CCCCNC(=O)OCc4ccccc4)cc3)[nH]c2n(CCC)c1=O.O=C(O)C(F)(F)F (stereo not drawn)
Ratio [3]: 30
Ki (Adenosine receptor A1 [7]): 6.4 nM
Ki (Adenosine A2 receptor [4]): 191 nM

Ki (Adenosine A2 receptor [2]): 3510 nM
Structure (SMILES): CCn1c(=S)c2nc(-c3ccccc3)[nH]c2n(CC)c1=O

Ki (Adenosine receptor A1 [1]): 84 nM
Ki (Adenosine A2 receptor [2]): 870 nM
Structure (SMILES): CCCn1c(=O)c2nc(-c3ccc(OCC(=O)NCCNC(=O)C(CCCCNC(=O)OCc4ccccc4)NC(=O)OC(C)(C)C)cc3)[nH]c2n(CCC)c1=S (stereo not drawn)

Structure (SMILES): CCCn1c(=O)c2nc(-c3ccc(OCC(=O)NCCNC(=O)C(N)Cc4cccs4)cc3)[nH]c2n(CCC)c1=O.O=C(O)C(F)(F)F (stereo not drawn)
Ki [8]: 1.3 nM
